From patent publication US20240124456A1, “AZA-ERGOLINE DERIVATIVE AND PREPARATION METHOD THEREFOR AND APPLICATION THEREOF” (SHANGHAITECH UNIVERSITY, priority 2021, published 2024)

How the values were obtained:
dopamine D2 receptors [1] = target: T1, dopamine D2 receptors (Homo sapiens (Human), UniProt P14416); test: Radioligand competition binding, affinity for dopamine D2 receptors ([3H]-Methylspiperone); settings: [3H]-Methylspiperone (0.3-0.5 nM), HEK-293T membranes; for Ki: I-1 to 19 n=3, I-20 to 27 single determination; for Affinity pKi ± SEM: n=3
T1 sequence (P14416 whole entry): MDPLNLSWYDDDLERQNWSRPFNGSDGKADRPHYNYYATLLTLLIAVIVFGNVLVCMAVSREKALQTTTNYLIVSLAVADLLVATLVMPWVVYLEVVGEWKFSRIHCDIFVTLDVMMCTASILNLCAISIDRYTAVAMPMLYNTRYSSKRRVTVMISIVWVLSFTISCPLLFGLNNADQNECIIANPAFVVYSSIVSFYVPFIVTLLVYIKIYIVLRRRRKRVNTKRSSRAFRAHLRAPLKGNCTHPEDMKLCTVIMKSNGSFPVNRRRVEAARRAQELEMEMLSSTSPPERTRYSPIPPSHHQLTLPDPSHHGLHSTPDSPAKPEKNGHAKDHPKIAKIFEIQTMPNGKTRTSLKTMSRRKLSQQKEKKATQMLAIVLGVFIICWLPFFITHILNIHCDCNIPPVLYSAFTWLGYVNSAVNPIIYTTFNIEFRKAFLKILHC
Experimental: A 10 cm diameter dish was used for transfection with 10 ng of the dopamine D2 receptors and 40 μL of PEI. After 48 hours, the 10 cm dish was taken out from the cell culture room and the cultured cells had expressed the dopamine D2 receptors. A vacuum pump was used to suck off the culture medium, 3 mL of lysis buffer (50 mM Tris hydrochloric acid buffer, pH 7.4) was added to each well, and the cells were placed in a 4° C. freezer for 10 minutes. After the cells were detached, the cells were transferred to a 15 mL centrifuge tube and centrifuged at 1500 rpm for 5 minutes at 4° C., and the supernatant was discarded. The cell pellet was transferred to a tissue homogenizer, and 3 mL of lysis buffer was added and fully ground until the cells were broken. Then, cell suspension was equally divided into several EP tubes, centrifuged at 4° C. and 12000 rpm for 5 min, and the supernatant was discarded. The precipitate was the cell membrane component containing the dopamine D2 receptors and stored at −80° C.
First, a standard binding buffer (50 mM HEPES, 50 mM NaCl, 5 mM MgCl2, 0.5 mM EDTA, pH 7.4) was added to the cell membrane component containing the dopamine D2 receptors, and the cell membrane was disrupted and resuspended with an electric tissue homogenizer. 30 μL of membrane protein suspension was added to each well of a 96-well plate. Then, 30 μL of different drugs were added to the 96-well plate from left to right to ensure that the final drug concentrations were 10^−5 M, 10^−6 M, 10^−7 M, 10^−8 M, 10^−9 M and 0 M, with two replicates per treatment. Next, 30 μL [^3H]-N-Methylspiperone was added to each well of the 96-well plate, and the plate was incubated for 2 hours at room temperature in the dark. The unbound isotopes were removed by Whatman GF/C filter membrane and vacuum pump, and the isotopes bound to the receptors were detected by MicroBeta isotope liquid scintillation counter.
The affinity of the compounds of the present invention for the dopamine D2 receptors was determined by the method of radioligand competition experiment. In the first step, a cell membrane component containing specific dopamine D2 receptors was prepared. A10 cm dish was used for transfection with 10 ng of the dopamine D2 receptors and 40 μL of PEI. After 48 hours, the 10 cm dish was taken out from the cell culture room and the cultured cells had expressed the dopamine D2 receptors. A vacuum pump was used to suck off the culture medium, 3 mL of lysis buffer was added to each well, and the cells were placed in a 4° C. freezer for 10 minutes. After the cells were detached, the cells were transferred to a 15 mL centrifuge tube and centrifuged at 1500 rpm for 5 minutes at 4° C., and the supernatant was discarded. The cell pellet was transferred to a tissue homogenizer, and 3 mL of lysis buffer was added and fully ground until the cells were broken. Then, cell suspension was equally divided into several EP tubes, centrifuged at 4° C. and 12000 rpm for 5 min, and the supernatant was discarded. The precipitate was the cell membrane component containing the dopamine D2 receptors. […] First, a standard binding buffer was added to the cell membrane component containing the dopamine D2 receptors, and the cell membrane was disrupted and resuspended with an electric tissue homogenizer. 30 μL of membrane protein suspension was added to each well of a 96-well plate. Then, 30 μL of different drugs were added to the 96-well plate from left to right to ensure that the final drug concentrations were 10^−5 M, 10^−6 M, 10^−7 M, 10^−8 M, 10^−9 M and 0 M, with two replicates per treatment. Next, 30 μL [^3H]-Methylspiperone was added to each well of the 96-well plate. The plate was incubated for 2 hours at room temperature in the dark. Detection. The machine reading value reflected the amount of [^3H]-Methylspiperone bound on the membrane, and after further data processing, the affinity Ki value of different compounds for dopamine D2 receptors was obtained.

dopamine D2 receptors [2] = target: T1, dopamine D2 receptors; test: G protein Gαi1-γ9 dissociation BRET, dopamine D2 receptor functional activity; type: cell-based; settings: for Emax: read-out: Gai1 BRET Emax % ± SEM
Experimental: To examine downstream G protein signaling mediated by dopamine D2 receptors, 6 cm dish was used for transfection with 1μg of dopamine D2 receptors, 1μg of Gαi1 fused to seaweed luciferase (Gαi1-Rluc), 1 μg of Gβ3, 1 μg of Gγ9 fused to green fluorescent protein (Gγ9-GFP) and 16 μL of transfection reagent PEI. […] On the third day, the drugs were added for test.
(§1) To examine downstream G-protein signaling pathway mediated by dopamine D2 receptors, on the first day, 6 cm dish was used for transfection with 1μg of dopamine D2 receptors, 1μg of Gαi1 containing C-terminal seaweed luciferase (GGαi1-Rluc), 1 μg of […], 1 μg of Gγ9 containing C-terminal green fluorescent protein (Gγ9-GFP) and 16 μL of PEI. At the same time, in order to examine the downstream f3-arrestin2 signaling pathway mediated by dopamine D2 receptors, on the first day, 6 cm dish was used for transfection with 500 μg of dopamine D2 receptors containing C-terminal seaweed luciferase (D2-Rluc), 500 μg of G protein-coupled receptor kinase 2 (GRK2), 2500 μg of […] containing N-terminal green fluorescent protein (GFP2-ARRB2) and 14 μL of PEI. The next day, the overgrown cells were digested and plated a 96-well plate at the amount of cells contained in a 6 cm culture dish with overgrown cells, and 100 μL of culture medium was added to each well. On the third day, the drugs were added for test. The 96-well plate was taken out from the cell culture room to remove the culture medium, 40 μL of the substrate coelenterazine 400a (final concentration of 5 μM) was added to each well, and then 20 μL of different drugs were added in turn from left to right to ensure that the final concentration of the drugs decreased gradually from bottom to top, and each treatment was repeated twice. Finally, the prepared samples were loaded on machine for test. The machine reading value reflected the intracellular β-arrestin2 on the membrane and the dissociation of G protein trimer. The former indicated the degree of activation of the β-arrestin2 signaling pathway downstream of the dopamine D2 receptors, and the latter indicated the degree of activation of the G protein signaling pathway downstream of the dopamine D2 receptors.

dopamine D2 receptors [3] = target: T1, dopamine D2 receptors; test: β-arrestin2 recruitment BRET, dopamine D2 receptor functional activity; type: cell-based; settings: for Emax: read-out: β-arrestin2 BRET Emax % ± SEM
Experimental: To examine the downstream f3-arrestin2 signaling pathway mediated by dopamine D2 receptors, 6 cm dish was used for transfection with 500 […] of dopamine D2 receptors fused to seaweed luciferase (D2-Rluc), 500 μg of G protein-coupled receptor kinase 2 (GRK2), 2500 μg of β-arrestin2 fused to green fluorescent protein (GFP2-ARRB2) and 14 μL of transfection reagent PEI. The next day, the overgrown cells were digested and plated a 96-well plate at the amount of cells contained in a 6 cm culture dish with overgrown cells, and 100 μL of culture medium was added to each well. On the third day, the drugs were added for test.
as §1

[4] = HEK-293T, I-1 to 19 n=3, I-20 to 27 single determination, read-out: Gai1 BRET EC50
[5] = relative to the endogenous ligand dopamine
[6] = HEK-293T, I-1 to 19 n=3, I-20 to 27 single determination, read-out: β-arrestin2 BRET EC50
[7] = n=3, read-out: β-arrestin2 BRET pEC50 ± SEM (converted)

Ki (dopamine D2 receptors [1]) [nM]	Affinity pKi ± SEM (dopamine D2 receptors [1])	EC50 (dopamine D2 receptors [2]; [4]) [nM]	Emax (dopamine D2 receptors [2]; [5]) [%]	EC50 (dopamine D2 receptors [3]; [6]) [nM]	Emax (dopamine D2 receptors [3]; [5]) [%]	EC50 (dopamine D2 receptors [3]; [7]) [nM]	EC50 (dopamine D2 receptors [2]; n=3, read-out: Gai1 BRET pEC50 ± SEM (converted)) [nM]	Structure (SMILES)	Gai1 BRET pEC50 ± SEM (dopamine D2 receptors [2]; n=3)	Gai1 BRET Emax % ± SEM (dopamine D2 receptors [2]; [5]) [%]	β-arrestin2 BRET pEC50 ± SEM (dopamine D2 receptors [3]; n=3)	β-arrestin2 BRET Emax % ± SEM (dopamine D2 receptors [3]; [5]) [%]
403	(6.40 ± 0.12)	138	104	275	97			O=C1CCc2ccc(OCCCN3CCN4c5cccc6[nH]cc(c56)CC4C3)cc2N1 (centres unmarked) [Compound I-7, 7-(3-(4,6,6a,7,9,10-hexahydro-8H-pyrazino[1,2-a]pyrrolo[4,3,2-de]quinolin-8-yl)propoxy)-3,4-dihydroquinolin-2(1H)-one]				
0.49	(9.31 ± 0.15)	38.9	94	110	98			O=c1ccc2ccc(OCCCN3CCN4c5cccc6[nH]cc(c56)CC4C3)cc2[nH]1 (centres unmarked) [Compound I-8, 7-(3-(4,6,6a,7,9,10-hexahydro-8H-pyrazino[1,2-a]pyrrolo[4,3,2-de]quinolin-8-yl)propoxy)quinolin-2(1H)-one]				
27.1	(7.57 ± 0.03)	17.4	92	20.4	89			O=C(N[C@H]1CC[C@H](CCN2CCN3c4cccc5[nH]cc(c45)CC3C2)CC1)N1CCCCC1 (stereo partly drawn) [Compound I-12, N-(4-(2-(4,6,6a,7,9,10-hexahydro-8H-pyrazino[1,2-a]pyrrolo[4,3,2-de]quinolin-8-yl)ethyl)trans-cyclohexyl)piperidine-1-carboxamide]				
77.5	(7.11 ± 0.12)	2.65	94	31.5	80			O=S(=O)(N[C@H]1CC[C@H](CCN2CCN3c4cccc5[nH]cc(c45)CC3C2)CC1)c1ccccc1 (some centres unmarked) [Compound I-15, N-(4-(2-(4,6,6a,7,9,10-hexahydro-8H-pyrazino[1,2-a]pyrrolo[4,3,2-de]quinolin-8-yl)ethyl)cyclohexyl)phenylsulfonamide]				
55.8	(7.25 ± 0.12)	32.7	61	202	38	200		Cc1nc2n(c(=O)c1CCN1CCN3c4cccc5[nH]cc(c45)CC3C1)CCCC2 (centres unmarked) [Compound I-17, 3-(2-(4,6,6a,7,9,10-hexahydro-8H-pyrazino[1,2-a]pyrrolo[4,3,2-de]quinolin-8-yl)ethyl)-2-methyl-6,7,8,9-tetrahydro-4H-pyrido[1,2-a]pyrimidin-4-one]				
52.7	(7.28 ± 0.15)	4	71		34	28.8	4.17	CN(C)C(=O)N[C@H]1CC[C@H](CCN2CCN3c4cccc5c4c(cn5C)CC3C2)CC1 (stereo partly drawn) [Compound I-19, 1,1-dimethyl-3-(4-(2-(4-methyl-4,6,6a,7,9,10-hexahydro-8H-pyrazino[1,2-a]pyrrolo[4,3,2-de]quinolin-8-yl)ethyl)trans-cyclohexyl)urea]				
176		38	41	91.6	32			Cn1cc2c3c(cccc31)N1CCN(C/C=C/COc3ccc4c(c3)NC(=O)CC4)CC1C2 (centres unmarked) [Compound I-22, (E)-7-((4-(4-methyl-4,6,6a,7,9,10-hexahydro-8H-pyrazino[1,2-a]pyrrolo[4,3,2-de]quinolin-8-yl)-2-buten-1-yl)oxy)-3,4-dihydroquinolin-2(1H)-one]				
100		54.8	38	294	36			Cn1cc2c3c(cccc31)N1CCN(C/C=C/COc3ccc4ccc(=O)[nH]c4c3)CC1C2 (centres unmarked) [Compound I-23, (E)-7-((4-(4-methyl-4,6,6a,7,9,10-hexahydro-8H-pyrazino[1,2-a]pyrrolo[4,3,2-de]quinolin-8-yl)-2-buten-1-yl)oxy)quinolin-2(1H)-one]				

Structure (SMILES)	Ki (dopamine D2 receptors [1]) [nM]	Affinity pKi ± SEM (dopamine D2 receptors [1])	EC50 (dopamine D2 receptors [2]; [4]) [nM]	Emax (dopamine D2 receptors [2]; [5]) [%]	EC50 (dopamine D2 receptors [3]; [6]) [nM]	Emax (dopamine D2 receptors [3]; [5]) [%]	EC50 (dopamine D2 receptors [3]; [7]) [nM]	EC50 (dopamine D2 receptors [2]; n=3, read-out: Gai1 BRET pEC50 ± SEM (converted)) [nM]	Gai1 BRET pEC50 ± SEM (dopamine D2 receptors [2]; n=3)	Gai1 BRET Emax % ± SEM (dopamine D2 receptors [2]; [5]) [%]	β-arrestin2 BRET pEC50 ± SEM (dopamine D2 receptors [3]; n=3)	β-arrestin2 BRET Emax % ± SEM (dopamine D2 receptors [3]; [5]) [%]
O=C(N[C@H]1CC[C@H](CCN2CCN3c4cccc5[nH]cc(c45)CC3C2)CC1)c1cc2ccccc2[nH]1 (some centres unmarked) [Compound I-13]	16.3	(7.79 ± 0.07)	6.74		146				8.17 ± 0.08	92 ± 3	6.84 ± 0.12	48 ± 8
O=C(N[C@H]1CC[C@H](CCN2CCN3c4cccc5[nH]cc(c45)CC3C2)CC1)c1ccccc1 (stereo partly drawn) [Compound I-14, N-(4-(2-(4,6,6a,7,9,10-hexahydro-8H-pyrazino[1,2-a]pyrrolo[4,3,2-de]quinolin-8-yl)ethyl)trans-cyclohexyl)benzamide]	40.7	(7.39 ± 0.05)	1.67	72	27.7	41						
Cn1cc2c3c(cccc31)N1CCN(CCCCOc3ccc4ccc(=O)[nH]c4c3)CC1C2 (centres unmarked) [Compound I-18, 7-(4-(4-methyl-4,6,6a,7,9,10-hexahydro-8H-pyrazino[1,2-a]pyrrolo[4,3,2-de]quinolin-8-yl)butoxy)quinolin-2(1H)-one]	61	(7.22 ± 0.02)	11	77	110	50						
